Test results taken from ChEMBL document CHEMBL1138717, “Synthesis of 8-thiabicyclo[3.2.1]oct-2-enes and their binding affinity for the dopamine and serotonin transporters” (Bioorg Med Chem Lett, 2004).

How the values were obtained:
[1] = molecular target: Sodium-dependent dopamine transporter (Homo sapiens, UniProt Q01959); assay: Inhibition of [3H]WIN-35428 binding to human dopamine transporter (hDAT)
[2] = molecular target: Sodium-dependent serotonin transporter (Homo sapiens, UniProt P31645); assay: Inhibition of [3H]citalopram binding to human serotonin transporter (hSERT)
[3] = Inhibition of [3H]WIN-35428 binding to dopamine transporter (DAT)

Sequence of Sodium-dependent dopamine transporter (Q01959 whole entry): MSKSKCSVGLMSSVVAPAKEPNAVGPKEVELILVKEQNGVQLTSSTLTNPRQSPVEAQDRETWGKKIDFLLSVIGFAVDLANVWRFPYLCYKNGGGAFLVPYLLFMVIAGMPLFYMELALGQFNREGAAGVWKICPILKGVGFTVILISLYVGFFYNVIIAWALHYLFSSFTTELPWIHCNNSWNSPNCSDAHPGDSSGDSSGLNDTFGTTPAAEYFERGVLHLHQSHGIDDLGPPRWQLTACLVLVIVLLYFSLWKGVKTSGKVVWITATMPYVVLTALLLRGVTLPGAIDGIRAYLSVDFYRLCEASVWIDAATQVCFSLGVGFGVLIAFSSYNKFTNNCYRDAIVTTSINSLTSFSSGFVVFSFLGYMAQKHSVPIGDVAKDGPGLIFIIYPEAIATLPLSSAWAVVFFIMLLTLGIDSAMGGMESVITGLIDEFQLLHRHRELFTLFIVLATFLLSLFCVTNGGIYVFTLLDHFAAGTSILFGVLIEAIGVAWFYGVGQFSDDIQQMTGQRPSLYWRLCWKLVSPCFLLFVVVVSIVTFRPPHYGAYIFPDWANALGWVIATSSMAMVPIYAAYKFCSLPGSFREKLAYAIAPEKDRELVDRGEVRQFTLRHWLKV
Sequence of Sodium-dependent serotonin transporter (P31645 whole entry): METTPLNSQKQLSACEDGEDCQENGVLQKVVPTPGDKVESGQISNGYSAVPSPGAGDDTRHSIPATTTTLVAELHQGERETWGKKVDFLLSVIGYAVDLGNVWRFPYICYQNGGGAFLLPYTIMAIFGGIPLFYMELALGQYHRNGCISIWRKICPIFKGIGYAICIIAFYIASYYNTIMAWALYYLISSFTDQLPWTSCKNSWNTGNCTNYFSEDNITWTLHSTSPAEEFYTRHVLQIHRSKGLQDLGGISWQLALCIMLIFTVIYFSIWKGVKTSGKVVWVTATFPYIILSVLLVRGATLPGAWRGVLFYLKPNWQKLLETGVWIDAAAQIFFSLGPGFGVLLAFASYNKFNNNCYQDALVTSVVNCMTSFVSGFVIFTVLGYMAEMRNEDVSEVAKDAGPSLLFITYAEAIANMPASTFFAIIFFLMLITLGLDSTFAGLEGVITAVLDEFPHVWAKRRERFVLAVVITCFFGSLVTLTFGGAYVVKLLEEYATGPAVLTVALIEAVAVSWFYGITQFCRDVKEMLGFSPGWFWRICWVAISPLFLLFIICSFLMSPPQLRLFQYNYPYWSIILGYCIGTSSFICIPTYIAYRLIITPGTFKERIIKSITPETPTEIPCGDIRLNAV

| Structure (SMILES) | IC50 [1] | IC50 [2] | IC50 [3] |
| --- | --- | --- | --- |
| COC(=O)C1=C(c2ccc(Cl)c(Cl)c2)CC2CCC1O2 (stereo unspecified) | 12 nM |  |  |
| COC(=O)C1=C(c2ccccc2)CC2CCC1O2 (stereo unspecified) | > 10000 nM | > 10000 nM |  |
| COC(=O)C1=C(c2ccc(Cl)cc2)CC2CCC1O2 (stereo unspecified) | 238 nM | > 60000 nM |  |
| COC(=O)C1=C(c2ccc(Cl)c(Cl)c2)CC2CCC1S2 (stereo unspecified) | 4.5 nM | 3600 nM |  |
| COC(=O)C1=C(c2ccc(Cl)cc2)CC2CCC1S2 (stereo unspecified) | 13 nM | > 10000 nM |  |
| COC(=O)C1=C(c2ccc(Br)cc2)CC2CCC1O2 (stereo unspecified) | 62 nM | > 30000 nM |  |
| COC(=O)C1=C(c2ccccc2)CC2CCC1S2 (stereo unspecified) | 910 nM | > 10000 nM |  |
| COC(=O)C1=C(c2ccc(I)cc2)CC2CCC1O2 (stereo unspecified) | 68 nM | 4800 nM |  |
| COC(=O)C1=C(c2ccc(Br)cc2)CC2CCC1S2 (stereo unspecified) | 9.1 nM | > 25000 nM |  |
| COC(=O)C1=C(c2ccc(F)cc2)CC2CCC1O2 (stereo unspecified) | 2730 nM | > 50000 nM |  |
| COC(=O)C1=C(c2ccc(F)cc2)CC2CCC1S2 (stereo unspecified) | 220 nM | 28000 nM |  |
| COC(=O)C1=C(c2ccc(I)cc2)CC2CCC1S2 (stereo unspecified) | 6.7 nM | 8700 nM |  |
| COC(=O)C1=C(c2ccc3ccccc3c2)CC2CCC1S2 (stereo unspecified) | 8 nM | 1300 nM |  |
| COC(=O)[C@H]1[C@@H](OC(=O)c2ccccc2)C[C@@H]2CC[C@H]1N2C [COCAINE] |  |  | 100 nM |
